The values that follow come from patent publication US7090853B2, “Noscapine derivatives as adjuvant compositions and methods of use thereof” (Emory University, priority 1999, dated 2006).

Data set [1] deals with EL4 thymocytes. The data set is described as follows: M phase arrest, alpha-tubulin immunofluorescence and flow cytometry. It is filed as cell-based. The settings on record: thymocyte cells, 20 μM Noscapine, 24 hr. As to the method:
(§1) Hela cells were grown in DMEM supplemented with 10% fetal calf serum, 1 mM L-glutamine and 1% penicillin/−streptomycin. The tumor cell line E.G7-OVA (H-2^b) [Moore, M. W., et al., Cell 54,777 (1988)] was grown in RPMI 1640 with 10% fetal calf serum, 1% sodium pyruvate, 1 mM L-glutamine, 0.1% gentamycin, 50 μM β-mercaptoethanol. Cells were grown at 37° C. in a 5% CO2 atmosphere. Cell viability was assessed by trypan blue exclusion analysis. Cell numbers were determined using a hemacytometer. C57BL/6(H-2^b) mice, 8 to 12 weeks of age, were obtained from Harian Sprague Dawley, Inc. (Indiananapolis, Ind.). Mice were maintained on standard laboratory chow and water ad libitum in a temperature and light controlled environment. For immunofluorescence, both Hela and thymocyte cells were treated identically except the Hela cells were grown onto glass coverslips while EL4 thymocytes were put on glass coverslips after fixation. Cells in 10 ml medium were incubated with 2 μl DMSO or 20 μM Noscapine (2 μl 0.1 M DMSO solution) respectively. After 24 hr, cells were fixed with cold (−20° C.) methanol for 5 min., then rehydrated by PBS for 1 min. Nonspecific sites were blocked by incubating with 200 μl of 1% bovine serum albumin (BSA) in phosphate buffered saline (PBS) at 37° C. for 15 minutes. […] Cells were examined with a fluorescence microscope. […] The samples were read on a cytometer.

In data set [2] the test system is Hela cells. Described as above. The settings on record: 20 μM Noscapine, 24 hr. Format: cell-based. How it is done: as §1
Data set [3] deals with HL-60 cells. Put plainly: Apoptosis of HL-60 cells, DAPI staining of nuclear chromatin. Format: cell-based. The settings on record: for Apoptic Cell Percentage: 24 hours. How it is done: Morphological changes in the nuclear chromatin of HL-60 cells undergoing apoptosis were detected by staining with 4′,6-diamidino-2-phenylindole (DAPI). In brief, 0.5×10^6 to 3×10^6 cells were fixed with 4% glutaraledebyde, 0.2% Triton x-100, in PBS and incubated at room temperature for 10 min., then centrifuged at 1000×g for 10 min., resuspended in 20 μl 0.1% DAPI ethanol. Following 15 min, incubation at room temperature, at 10 μl aliquot was placed on a glass slide, and 400 cells per slide were scored for the incidence of apoptotic chromatin changes with a fluorescence microscope.

Data set [4] relates to human breast tumors. The conditions noted are these: nude mice; cited from earlier work.
Data set [5] has as its system OVA. The data set is described as follows: OVA-specific immune responses of noscapine-treated tumor survivors after OVA in CFA. It is filed as in vivo, B6 mice. The conditions noted are these: for IFNγ / cytokine production by lymph node CD4+ T cells / OVA-specific antibody responses: tumor survivors vs control mice, ELISA. As to the method:
(FIG. 2A) antibody responses were measured by ELISA with OVA coated microtiter plates,
(FIG. 2B) IFNγ production by lymphnode cells was measured by ELlSA by comparison with recombinant IFNγ and
(FIG. 2C) CTL responses were measured using ^51Cr labeled target cells.
Untreated, control B6 mice and noscapine treated mice whose tumors regressed, were injected with OVA in CFA to test whether the tumor had induced tolerance to OVA. […] Moreover, the OVA-specific CTL response of mice that recovered from the tumor was enhanced by 10- to 30-fold compared to the response of non-tumor bearing controls (FIG. 2C) (14).
For orientation: An ELISA detects its analyte on a solid surface through an enzyme-linked reagent.

The test system of data set [6] is E.G7-OVA tumor cells. Put plainly: Survival and tumor regression of E.G7-OVA tumor-bearing mice, noscapine in drinking water. It is filed as in vivo, C57BL/6 mice. As to the method:
C57BL/6 mice were injected s.c. with 2×10^6 E.G7-OVA tumor cells. Three days later, two groups received the indicated dose of noscapine in their drinking water. There were 5 mice/group. Untreated mice survived from 6 to 7 weeks after tumor inoculation. In marked contrast, the majority of the mice treated with 1.5 or 3.0 mg/ml Noscapine survived for greater than 16 weeks when the experiment was terminated.
FIGS. 3A–3I show B6 mice were injected subcutaneously with 2×10^6 E.G7-OVA tumor cells and after three days half of the mice were treated continuously with 1.5 or 3.0 mg noscapine/ml of drinking water. All of the untreated mice developed tumors and were euthanized after three weeks. […] Normal B6 mice (A–C) and mice treated for 3 months with noscapine (D–F) were euthanized.
To test whether E.G7-OVA tumor induced tolerance, tumors were ablated by treating the mice with noscapine in the drinking water beginning three days after tumor transplantation. Tumors grew in all mice that had received E.G7-OVA without noscapine.

For data set [7], the system named is OVA. Put plainly: Immune response to OVA in CFA in mice on oral noscapine. It is filed as in vivo, B6 mice. How it is done: On day 0 all mice were injected with 200 μg OVA in CFA in the foot pad. Mice were bled individually on day 18 and their sera tested for antibody to OVA by ELISA (FIG. 5A). The mice were sacrificed on day 21 and their spleen cells cultured with E.G7-OVA for 6 days and their cytolytic activity measured with ^51Cr labeled cells (FIG. 5B).
The inventors believe that the damage caused to the mitotic apparatus of dividing cells must be repaired by normal cells but not the tumor cells at the tumor suppressive doses. Alternatively, the tumor suppressive effects of Noscapine may be unrelated to the anti-mitotic effect of the drug.

Entries after “also recorded” stand apart in the source; their conditions may differ. Marks after values point to notes of the source that are not given here.

For the compound `COc1ccc2c(c1OC)C(=O)O[C@@H]2[C@H]1c2c(cc3c(c2OC)OCO3)CCN1C` [Noscapine], the “M phase arrest of microtubule arrays” value in data set [1] and in data set [2] was “arrested in M phase” each time. The “Apoptic Cell Percentage” value is 30.17† % in data set [3] (20 μM in DMSO, two trials, result for each trial shown) and 27% in data set [3] (50 μM in DMSO). For the same compound, the Initiation of apoptosis result in data set [3] (DAPI staining) is reported as “initiate apoptosis”. In data set [4], the “regression of human breast tumors” value is on record as “caused regression”. Also, in data set [5] (tumor survivors treated with Noscapine vs control mice, 51Cr labeled target cells), the “CTL responses after immunization with OVA in CFA” value is “enhanced”. The results for the “IFNγ / cytokine production by lymph node CD4+ T cells” value in data set [5] and in data set [5] (listed as noscapine) were “indistinguishable from control mice” and “identical”, respectively. Moreover, the figures for the OVA-specific antibody responses entry in data set [5] and in data set [5] (listed as noscapine) were “indistinguishable from control mice” and “identical”, respectively. Moreover, the tumor regression result in data set [6] (1.5 or 3.0 mg noscapine/ml of drinking water, continuous) is “disappeared and did not return during four months of continuous treatment; also recorded: majority of tumors in mice treated with noscapine regress”. For the same compound, the “survival after tumor inoculation” value in data set [6] (majority of mice, 1.5 or 3.0 mg/ml in drinking water from day 3, experiment terminated at 16 weeks) was “greater than 16 weeks”. Moreover, in data set [7] (1.5 mg noscapine/ml drinking water from day -7), the “immune response to OVA in CFA” value is “no detectable adverse effect”. Also, the primary antibody response result in data set [7] (oral noscapine, ELISA day 18) is recorded as “did not inhibit”. Besides, in data set [7] (oral noscapine, spleen cells day 21, 51Cr labeled cells), the CTL response entry is “did not inhibit”.
